≈ marks a conversion by molar mass, not a printed value.
Tests used:
Assay type in all cases: biochemical
HIV-1 RT = target: T1, HIV-1 RT (Human immunodeficiency virus type 1 group M subtype B, UniProt P03366); experiment: HIV-1 reverse transcriptase assay; details: dATP (3.2 µM) as competing substrate, poly rU.dA primer/template
T1 construct: 4 µl of recombinant HIV-1 RT
Protocol: […] In the HSV DNA polymerase assays, the inhibitory effect of adefovir-pp or PMEA-DAPym-pp on herpesvirus DNA polymerase-catalyzed polymerization was also determined in the presence of radiolabeled [^3H]dGTP (1 mCi/ml; 2.8 µM), [^3H]dTTP (1 mCi/ml; 1 µM), or [^3H]dCTP (1 mCi/ml; 2.5 µM) as competing dNTP in the presence of 0.8 µl (5 mM) of the other dNTPs in the reaction mixture as described above. The reaction was started by the addition of 4 µl of recombinant HSV-1 DNA polymerase (kindly provided by M.W. Wathen, at that time at Pfizer, Kalamazoo, MI) or 4 µl of recombinant HIV-1 RT (in 20 mM Tris.HCl, pH 8.0; 1 mM DTT; 0.1 mM EDTA; 0.2 M NaCl; 40% glycerol), and the reaction mixture was incubated for 60 min (HSV-1 DNA polymerase) or 30 min (HIV-1 RT) at 37°C. Then, 1 ml of ice-cold 5% TCA in 0.02 M Na4P2O7.10 H2O was added to terminate the polymerisation reaction, after which the acid-insoluble precipitate (radiolabeled DNA) was captured onto Whatman glass fiber filters (type GF/C; GE Healthcare UK Limited, Buckinghamshire, UK) and further washed with 5% TCA and ethanol to remove free radiolabeled dNTP. Radioactivity was determined in a Perkin Elmer Tri-Carb 2810 TR liquid scintillation counter.

HSV DNA polymerase = target: T2, HSV DNA polymerase (Human herpesvirus 1, UniProt P04293); experiment: HSV DNA polymerase assay; details: for IC50: gapped calf thymus DNA
T2 construct: gift of M.W. Wathen (Pfizer, Kalamazoo, MI)
T2 sequence (P04293 whole entry): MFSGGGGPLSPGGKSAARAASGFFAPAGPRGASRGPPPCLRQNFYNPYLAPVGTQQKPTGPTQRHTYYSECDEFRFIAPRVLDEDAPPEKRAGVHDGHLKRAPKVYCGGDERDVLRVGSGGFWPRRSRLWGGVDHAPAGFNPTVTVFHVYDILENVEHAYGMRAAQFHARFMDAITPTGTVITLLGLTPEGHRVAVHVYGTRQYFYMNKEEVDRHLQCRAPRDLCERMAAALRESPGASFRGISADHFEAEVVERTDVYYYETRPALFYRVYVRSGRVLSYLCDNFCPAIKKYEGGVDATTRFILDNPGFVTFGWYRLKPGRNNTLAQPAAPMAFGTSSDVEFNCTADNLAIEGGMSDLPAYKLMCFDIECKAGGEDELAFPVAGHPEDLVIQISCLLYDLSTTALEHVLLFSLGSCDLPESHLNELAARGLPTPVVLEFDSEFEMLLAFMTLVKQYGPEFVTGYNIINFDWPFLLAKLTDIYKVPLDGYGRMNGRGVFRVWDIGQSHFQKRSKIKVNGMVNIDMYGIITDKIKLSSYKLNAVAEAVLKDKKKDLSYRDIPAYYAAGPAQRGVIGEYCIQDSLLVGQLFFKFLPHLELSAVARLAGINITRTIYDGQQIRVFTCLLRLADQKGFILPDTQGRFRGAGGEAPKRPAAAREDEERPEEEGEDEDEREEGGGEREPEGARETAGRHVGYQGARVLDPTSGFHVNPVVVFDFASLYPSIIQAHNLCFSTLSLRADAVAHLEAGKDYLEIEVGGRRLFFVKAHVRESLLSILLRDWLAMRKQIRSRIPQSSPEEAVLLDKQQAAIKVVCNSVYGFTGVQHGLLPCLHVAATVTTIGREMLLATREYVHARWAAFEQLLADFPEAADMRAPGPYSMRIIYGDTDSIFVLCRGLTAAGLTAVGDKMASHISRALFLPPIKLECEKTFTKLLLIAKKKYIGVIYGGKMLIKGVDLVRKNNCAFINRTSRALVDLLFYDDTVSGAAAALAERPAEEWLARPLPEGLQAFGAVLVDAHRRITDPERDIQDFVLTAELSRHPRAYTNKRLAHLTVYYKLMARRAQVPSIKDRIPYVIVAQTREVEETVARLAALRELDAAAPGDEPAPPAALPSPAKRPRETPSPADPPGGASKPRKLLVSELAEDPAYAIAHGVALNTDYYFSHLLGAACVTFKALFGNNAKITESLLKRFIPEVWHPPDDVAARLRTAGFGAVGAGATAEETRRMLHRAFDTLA
Protocol: The reaction mixture (40 µl) for the HSV-1 DNA polymerase and HIV-1 RT assays contained 4 µl of Premix (200 mM Tris.HCl, pH 7.5; 2 mM DTT; 30 mM MgCl2), 4 µl of BSA (5 mg/ml), 1.6 µl of activated calf thymus DNA (1.25 mg/ml), 0.8 µl of dCTP (5 mM), 0.8 µl of dTTP (5 mM), 0.8 µl of dGTP (5 mM), 2 µl of radiolabeled [^3H]dATP (1 mCi/ml) (3.2 µM), 18 µl of H2O, and 4 µl of adefovir-pp or PMEO-DAPym-pp at different concentrations (i.e., 200, 20, 2, and 0.2 µM). In the HSV DNA polymerase assays, the inhibitory effect of adefovir-pp or PMEA-DAPym-pp on herpesvirus DNA polymerase-catalyzed polymerization was also determined in the presence of radiolabeled [^3H]dGTP (1 mCi/ml; 2.8 µM), [^3H]dTTP (1 mCi/ml; 1 µM), or [^3H]dCTP (1 mCi/ml; 2.5 µM) as competing dNTP in the presence of 0.8 µl (5 mM) of the other dNTPs in the reaction mixture as described above. The reaction was started by the addition of 4 µl of recombinant HSV-1 DNA polymerase (kindly provided by M.W. Wathen, at that time at Pfizer, Kalamazoo, MI) or 4 µl of recombinant HIV-1 RT (in 20 mM Tris.HCl, pH 8.0; 1 mM DTT; 0.1 mM EDTA; 0.2 M NaCl; 40% glycerol), and the reaction mixture was incubated for 60 min (HSV-1 DNA polymerase) or 30 min (HIV-1 RT) at 37°C. Then, 1 ml of ice-cold 5% TCA in 0.02 M Na4P2O7.10 H2O was added to terminate the polymerisation reaction, after which the acid-insoluble precipitate (radiolabeled DNA) was captured onto Whatman glass fiber filters (type GF/C; GE Healthcare UK Limited, Buckinghamshire, UK) and further washed with 5% TCA and ethanol to remove free radiolabeled dNTP. Radioactivity was determined in a Perkin Elmer Tri-Carb 2810 TR liquid scintillation counter.

[1] = target: mutant HIV-1 RT enzymes (K65R and K70R); experiment: Mutant HIV-1 RT enzyme inhibition; details: K65R and K70R mutant HIV-1 RT, data not shown
Protocol: In all assay systems the drugs were administered prior to, or at the time of, virus infection which is relevant from a microbicidal application viewpoint, for which the drugs are preferentially already present at the time of infection. However, it might well be possible that these drugs are also effective when exposed shortly after virus infection given the DNA polymerase/HIV reverse transcriptase as being one of the intracellular targets of PMEO-DAPym. […] Thus, PMEO-DAPym may have a rather high genetic barrier suppressing a wide variety of clinical HSV and HIV-1 clade isolates, including clinically relevant mutant viruses.

`Nc1cc(OCCOCP(=O)(O)OP(=O)(O)OP(=O)(O)O)nc(N)n1` [PMEO-DAPym-pp] gave an IC50 (HIV-1 RT) of 0.19 ± 0.21 µg/mL (≈ 0.448 µM), an IC50 (HIV-1 RT; listed as PMEO-DAPym-diphosphate) of 0.43 µg/mL (≈ 1.01 µM) and an IC50 (HSV DNA polymerase; [3H]dATP as competing substrate) of 0.52 ± 0.03 µg/mL (≈ 1.23 µM). For the same compound, the IC50 (HSV DNA polymerase; [3H]dCTP as competing substrate) was 5.2 ± 4.8 µg/mL (≈ 12.3 µM), the IC50 (HSV DNA polymerase; [3H]dGTP as competing substrate) was 3.1 ± 1.0 µg/mL (≈ 7.31 µM) and the IC50 (HSV DNA polymerase; [3H]dTTP as competing substrate) was 5.2 ± 0.3 µg/mL (≈ 12.3 µM). For the same compound, the “IC50, incorporation of other [3H]dNTPs” value (HSV DNA polymerase; dCTP, dGTP, dTTP, range) was 3.1 to 5.2 µg/mL and the IC50 [1] was “submicromolar range”.

From paper PMC3723632, “A Multi-targeted Drug Candidate with Dual Anti-HIV and Anti-HSV Activity” (PLoS Pathogens, 2013)
